{"source": "patent US5196437A", "about": "“Method for treating hepatic diseases and regenerating liver tissue using FK 506 and related compounds” (Fujisawa Pharmaceutical Company, Ltd., priority 1990, dated 1993)", "key": {"[1]": {"test_system": "midzonal hepatocytes", "test": "Eck fistula dogs, left portal vein infusion: electron microscopy of hepatocyte organelles", "assay_type": "in vivo, dog (beagle)", "conditions": "for Area of rough endoplasmic reticulum per average midzonal hepatocyte, Right / Area of smooth endoplasmic reticulum per average midzonal hepatocyte, Right / Organelle volume in average midzonal hepatocytes, Lipids, Right / Organelle volume in average midzonal hepatocytes, Lysosomes, Right / Organelle volume in average midzonal hepatocytes, Microbodies, Right / Organelle volume in average midzonal hepatocytes, Mitochondria, Right: right lobe; for Area of rough endoplasmic reticulum per average midzonal hepatocyte, Right / Area of smooth endoplasmic reticulum per average midzonal hepatocyte, Right / Organelle volume in average midzonal hepatocytes, Lysosomes, Left / Organelle volume in average midzonal hepatocytes, Lipids, Left / Organelle volume in average midzonal hepatocytes, Microbodies, Left / Organelle volume in average midzonal hepatocytes, Mitochondria, Left / Area of rough endoplasmic reticulum per average midzonal hepatocyte, Left / Area of smooth endoplasmic reticulum per average midzonal hepatocyte, Left / Organelle volume in average midzonal hepatocytes, Lipids, Right / Organelle volume in average midzonal hepatocytes, Lysosomes, Right / Organelle volume in average midzonal hepatocytes, Microbodies, Right / Organelle volume in average midzonal hepatocytes, Mitochondria, Right: mean +/- SD; for Organelle volume in average midzonal hepatocytes, Lysosomes, Left / Organelle volume in average midzonal hepatocytes, Lipids, Left / Organelle volume in average midzonal hepatocytes, Microbodies, Left / Organelle volume in average midzonal hepatocytes, Mitochondria, Left / Area of rough endoplasmic reticulum per average midzonal hepatocyte, Left / Area of smooth endoplasmic reticulum per average midzonal hepatocyte, Left: left (infused) lobe", "procedure": "Twenty adult female beagle dogs underwent Eck fistula (Starzl et al, Lancet, 1976, 1:821-25). After performing a large side to side portacaval shunt, the left and right portal vein branches were ligated. A small infusion catheter was tied into the left branch and led through the abdominal wall and subcutaneously to a battery charged infusion pump that was incorporated into a non-restraining body cast. A constant infusion was started of the control or test fluids at the volume of 20 to 30 ml/day. Oral fluids and diet were allowed ad lib. Four days later, the animals were administered 0.2 mCi/kg (CH3 -^3 H)-thymidine with specific activity of 80-90 Ci/MMol (New England Nuclear, Boston). Two hours later, the dogs were anesthetized and killed.\nFor studies of the organelles, small cubes of each hepatic sample were taken for electron microscopy. The tissue was post-fixed in glutaraldehyde followed by osmic acid. After embedding in Polarbed. 812 resin, ultrathin sections were cut, stained with lead citrate and examined in a Philip's 300 electron microscope. Measurements of the organelles were made on electron micrographs by Loud's method (Loud, J Cell Biol, 1968, 37:27-46).\nResults are expressed as mean±standard deviation (SD). The Student's t-test was employed in individual experimental groups to compare differences between right and left lobes or between groups. A p value less than 0.05 was considered to be significant."}, "[2]": {"test_system": "acute and chronic liver allograft rejection", "conditions": "humans; compared with previous compounds; cited from earlier work"}, "[3]": {"test_system": "hepatocytes in culture", "conditions": "literature (Francavilla et al); cited from earlier work"}}, "data": [{"molecule": "C=CCC1C=C(C)CC(C)CC(OC)C2OC(O)(C(=O)C(=O)N3CCCCC3C(=O)OC(C(C)=CC3CCC(O)C(OC)C3)C(C)C(O)CC1=O)C(C)CC2OC", "note": "(centres unmarked) [FK 506]", "values": [{"measurement": "Area of rough endoplasmic reticulum per average midzonal hepatocyte, Right", "setting": "[1]; 0.01 mg/kg/day, p vs vehicle 0.0019", "result": "18697 +/- 1010 uM^2"}, {"measurement": "Area of smooth endoplasmic reticulum per average midzonal hepatocyte, Right", "setting": "[1]; 0.01 mg/kg/day, p vs vehicle 0.1092", "result": "23337 +/- 902 uM^2"}, {"measurement": "Organelle volume in average midzonal hepatocytes, Lysosomes, Left", "setting": "[1]; 0.1 mg/kg/day, left vs right p 0.0000", "result": "59.6 +/- 15.6 uM^3"}, {"measurement": "Organelle volume in average midzonal hepatocytes, Lipids, Left", "setting": "[1]; 0.1 mg/kg/day, left vs right p 0.0011", "result": "22.8 +/- 6.7 uM^3"}, {"measurement": "Organelle volume in average midzonal hepatocytes, Microbodies, Left", "setting": "[1]; 0.1 mg/kg/day, left vs right p 0.0025", "result": "86.3 +/- 11.5 uM^3"}, {"measurement": "Organelle volume in average midzonal hepatocytes, Mitochondria, Left", "setting": "[1]; 0.1 mg/kg/day, left vs right p 0.2529", "result": "1288.5 +/- 236.2 uM^3"}, {"measurement": "Area of rough endoplasmic reticulum per average midzonal hepatocyte, Left", "setting": "[1]; 0.1 mg/kg/day, p vs vehicle 0.0001, left vs right 0.0001", "result": "29889 +/- 1117 uM^2"}, {"measurement": "Area of smooth endoplasmic reticulum per average midzonal hepatocyte, Left", "setting": "[1]; 0.1 mg/kg/day, p vs vehicle 0.0703, left vs right 0.0018", "result": "18688 +/- 498 uM^2"}, {"measurement": "Organelle volume in average midzonal hepatocytes, Lipids, Right", "setting": "[1]; 0.1 mg/kg/day", "result": "83.8 +/- 19.7 uM^3"}, {"measurement": "Organelle volume in average midzonal hepatocytes, Lysosomes, Right", "setting": "[1]; 0.1 mg/kg/day", "result": "187.6 +/- 14.8 uM^3"}, {"measurement": "Organelle volume in average midzonal hepatocytes, Microbodies, Right", "setting": "[1]; 0.1 mg/kg/day", "result": "172.5 +/- 34.2 uM^3"}, {"measurement": "Organelle volume in average midzonal hepatocytes, Mitochondria, Right", "setting": "[1]; 0.1 mg/kg/day", "result": "1439.3 +/- 115.4 uM^3"}, {"measurement": "Area of rough endoplasmic reticulum per average midzonal hepatocyte, Right", "setting": "[1]; 0.1 mg/kg/day, p vs vehicle 0.0007", "result": "20325 +/- 975 uM^2"}, {"measurement": "Area of smooth endoplasmic reticulum per average midzonal hepatocyte, Right", "setting": "[1]; 0.1 mg/kg/day, p vs vehicle 0.0725", "result": "22747 +/- 1305 uM^2"}, {"measurement": "preservation of the RER in the right lobes", "setting": "[1]; 1 mg/kg/day, compared to vehicle controls", "result": "better preservation of the RER"}, {"measurement": "lipid accumulation in right lobes", "setting": "[1]; 1 mg/kg/day, compared to vehicle controls, p<0.001", "result": "reduced lipid accumulation"}, {"measurement": "Organelle volume in average midzonal hepatocytes, Lysosomes, Left", "setting": "[1]; 1.0 mg/kg/day, left vs right p 0.0002", "result": "48.8 +/- 10.9 uM^3"}, {"measurement": "Organelle volume in average midzonal hepatocytes, Lipids, Left", "setting": "[1]; 1.0 mg/kg/day, left vs right p 0.0044", "result": "15.6 +/- 2.8 uM^3"}, {"measurement": "Organelle volume in average midzonal hepatocytes, Microbodies, Left", "setting": "[1]; 1.0 mg/kg/day, left vs right p 0.1111", "result": "94.2 +/- 10.4 uM^3"}, {"measurement": "Organelle volume in average midzonal hepatocytes, Mitochondria, Left", "setting": "[1]; 1.0 mg/kg/day, left vs right p 0.1996", "result": "1284.8 +/- 178.9 uM^3"}, {"measurement": "Area of rough endoplasmic reticulum per average midzonal hepatocyte, Left", "setting": "[1]; 1.0 mg/kg/day, p vs vehicle 0.0000, left vs right 0.0002", "result": "32091 +/- 1225 uM^2"}, {"measurement": "Area of smooth endoplasmic reticulum per average midzonal hepatocyte, Left", "setting": "[1]; 1.0 mg/kg/day, p vs vehicle 0.0574, left vs right 0.0024", "result": "17876 +/- 642 uM^2"}, {"measurement": "lysosomes in right lobar hepatocytes", "setting": "[1]; 1 mg/kg/day, p<0.05", "result": "reduced"}, {"measurement": "microbodies in right lobar hepatocytes", "setting": "[1]; 1 mg/kg/day, p=0.07", "result": "reduced"}, {"measurement": "Organelle volume in average midzonal hepatocytes, Lipids, Right", "setting": "[1]; 1.0 mg/kg/day", "result": "47.8 +/- 11.3 uM^3"}, {"measurement": "Organelle volume in average midzonal hepatocytes, Lysosomes, Right", "setting": "[1]; 1.0 mg/kg/day", "result": "160.0 +/- 23.8 uM^3"}, {"measurement": "Organelle volume in average midzonal hepatocytes, Microbodies, Right", "setting": "[1]; 1.0 mg/kg/day", "result": "136.6 +/- 41.3 uM^3"}, {"measurement": "Organelle volume in average midzonal hepatocytes, Mitochondria, Right", "setting": "[1]; 1.0 mg/kg/day", "result": "1440.6 +/- 318.7 uM^3"}, {"measurement": "Area of rough endoplasmic reticulum per average midzonal hepatocyte, Right", "setting": "[1]; 1.0 mg/kg/day, p vs vehicle 0.0003", "result": "20839 +/- 1612 uM^2"}, {"measurement": "Area of smooth endoplasmic reticulum per average midzonal hepatocyte, Right", "setting": "[1]; 1.0 mg/kg/day, p vs vehicle 0.0858", "result": "23154 +/- 193 uM^2"}, {"measurement": "mitochondria", "setting": "[1]; FK 506-infused lobes", "result": "neither enlarged (Table V) nor abnormal"}, {"measurement": "number of microbodies, lysosomes and small lipid containing vacuoles", "setting": "[1]; FK 506-infused lobes", "result": "near normal levels"}, {"measurement": "amount of rough endoplasmic reticulum", "setting": "[1]; infused lobes", "result": "restored relative to controls"}, {"measurement": "dilatation and disruption of the cisternae", "setting": "[1]; infused lobes", "result": "minimal"}, {"measurement": "ultrastructure of hepatocytes exposed to infused FK 506", "setting": "[1]; left lobes, even at the smallest doses", "result": "almost normal even at the smallest doses"}, {"measurement": "changes in the hepatocytes in the right lobes", "setting": "[1]; low doses of FK 506, compared with controls", "result": "did not differ greatly from those seen in the controls"}, {"measurement": "acute and chronic liver allograft rejection", "setting": "[2]", "result": "prevent acute and chronic liver allograft rejection in humans more reliably and completely than has been possible with previous compounds"}, {"measurement": "direct effect on hepatocytes in culture", "setting": "[3]", "result": "no direct effect"}]}]}
